PubChem BioAssay AID2060622 (Molecular Pharmacology Branch, DTP, NCI, 2025)
Where “and” joins values, the source holds several entries; their conditions need not be identical. Equal values may be shown once.

Tested on: 242566-281-R-J2-PDC complex spheroid viability
Assay: Anticancer human tumor 242566-281-R-J2-PDC patient-derived pancreatic carcinoma cell line growth inhibition [CLK]
Conditions: for viability, T/C: stronger effect = lower value
Method in brief: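 Patient-derived tumor cells grown as complex spheroids with HUVEC endothelial cells and mesenchymal stem cells, treated with drug combinations. Concentrations descend in half-log steps from near clinical Cmax, or from 10 microM if Cmax unknown.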

[1] = curve of first compound, second compound 0.0316 µM
[2] = curve of first compound, second compound 0.1 µM
[3] = curve of first compound, second compound 0.316 µM
[4] = curve of first compound, second compound 1 µM
[5] = curve of first compound, second compound 3.16 µM
[6] = curve of first compound, second compound 10 µM
[7] = second compound 0.0316 µM, first compound 0.0316 µM
[8] = second compound 0.0316 µM, first compound 0.1 µM
[9] = second compound 0.0316 µM, first compound 0.316 µM
[10] = second compound 0.0316 µM, first compound 1 µM
[11] = second compound 0.1 µM, first compound 0.0316 µM
[12] = second compound 0.1 µM, first compound 0.1 µM
[13] = second compound 0.1 µM, first compound 0.316 µM
[14] = second compound 0.1 µM, first compound 1 µM
[15] = second compound 0.316 µM, first compound 0.0316 µM
[16] = second compound 0.316 µM, first compound 0.1 µM
[17] = second compound 0.316 µM, first compound 0.316 µM
[18] = second compound 0.316 µM, first compound 1 µM
[19] = second compound 1 µM, first compound 0.0316 µM
[20] = second compound 1 µM, first compound 0.1 µM
[21] = second compound 1 µM, first compound 0.316 µM
[22] = second compound 1 µM, first compound 1 µM
[23] = second compound 3.16 µM, first compound 0.0316 µM
[24] = second compound 3.16 µM, first compound 0.1 µM
[25] = second compound 3.16 µM, first compound 0.316 µM
[26] = second compound 3.16 µM, first compound 1 µM
[27] = second compound 10 µM, first compound 0.0316 µM
[28] = second compound 10 µM, first compound 0.1 µM
[29] = second compound 10 µM, first compound 0.316 µM
[30] = second compound 10 µM, first compound 1 µM
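Also: spheroids exposed to compounds for 7 days before readout.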
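For viability, T/C in this document: 100% = DMSO vehicle control wells.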

O=C(c1cc(Cc2n[nH]c(=O)c3ccccc23)ccc1F)N1CCN(C(=O)C2CC2)CC1 was tested, and the viability, T/C (compound 0.0316 µM) was 107% and 93.5%, the viability, T/C (compound 0.1 µM) was 97.4% and 85.4% and the viability, T/C (compound 0.316 µM) was 96.3% and 82.3%. For the same compound, the viability, T/C (compound 1 µM) was 102% and 94.1%, the viability, T/C (compound 3.16 µM) was 87.1% and 111% and the viability, T/C (compound 10 µM) was 72.5% and 75.4%. For the same compound, the IC50 (curve of compound) was greater than 10000 nM.

Compound COC1C=CCC(C)C(C)S(=O)(=O)NC(=O)c2ccc3c(c2)N(CC2CCC21)CC1(CCCc2cc(Cl)ccc21)CO3 (stereo unspecified) + CNC(=O)c1ccc(Nc2nc(OC3CCCC3)c3c(-c4ccc5nc(C)oc5c4)c[nH]c3n2)c(OC)c1 has an IC50 [1] of 5240 nM, an IC50 [2] of 6170 nM and an IC50 [3] of 404 nM. For the same compound, the IC50 [4] was 139 nM, the IC50 [5] was less than 31.6 nM and the IC50 [6] was less than 31.6 nM. It also gave a viability, T/C [7] of 95.8%, a viability, T/C [8] of 91.9% and a viability, T/C [9] of 72%. The viability, T/C [10] was 84.9%, the viability, T/C (second compound 0.0316 µM, first compound 3.16 µM) was 67.5% and the viability, T/C (second compound 0.0316 µM, first compound 10 µM) was 29.1%. The viability, T/C [11] was 94.7%, the viability, T/C [12] was 74.8% and the viability, T/C [13] was 65.4%. The viability, T/C [14] was 84.3%, the viability, T/C (second compound 0.1 µM, first compound 3.16 µM) was 91.4% and the viability, T/C (second compound 0.1 µM, first compound 10 µM) was 26.8%. It also gave a viability, T/C [15] of 84.9%, a viability, T/C [16] of 64.7% and a viability, T/C [17] of 50.6%. It also gave a viability, T/C [18] of 42.3%, a viability, T/C (second compound 0.316 µM, first compound 3.16 µM) of 39.1% and a viability, T/C (second compound 0.316 µM, first compound 10 µM) of 25.9%. For the same compound, the viability, T/C [19] was 64.9%, the viability, T/C [20] was 55.3% and the viability, T/C [21] was 38.5%. It also gave a viability, T/C [22] of 29.1%, a viability, T/C (second compound 1 µM, first compound 3.16 µM) of 25.6% and a viability, T/C (second compound 1 µM, first compound 10 µM) of 19.6%. For the same compound, the viability, T/C [23] was 49.6%, the viability, T/C [24] was 40.1% and the viability, T/C [25] was 30.7%. For the same compound, the viability, T/C [26] was 20.8%, the viability, T/C (second compound 3.16 µM, first compound 3.16 µM) was 18.1% and the viability, T/C (second compound 3.16 µM, first compound 10 µM) was 14.2%. It also gave a viability, T/C [27] of 42.9%, a viability, T/C [28] of 41.2% and a viability, T/C [29] of 30.8%. For the same compound, the viability, T/C [30] was 18.3%, the viability, T/C (second compound 10 µM, first compound 3.16 µM) was 13.5% and the viability, T/C (second compound 10 µM, first compound 10 µM) was 12.1%.

Compound CCN1CCN(Cc2ccc(Nc3ncc(F)c(-c4cc(F)c5nc(C)n(C(C)C)c5c4)n3)nc2)CC1 + CNC(=O)c1ccc(Nc2nc(OC3CCCC3)c3c(-c4ccc5nc(C)oc5c4)c[nH]c3n2)c(OC)c1 has an IC50 [1] greater than 1000 nM, an IC50 [2] greater than 1000 nM and an IC50 [3] greater than 1000 nM. For the same compound, the IC50 [4] was greater than 1000 nM, the IC50 [5] was greater than 1000 nM and the IC50 [6] was greater than 1000 nM. For the same compound, the viability, T/C (second compound 0.0316 µM, first compound 0.00316 µM) was 103%, the viability, T/C (second compound 0.0316 µM, first compound 0.01 µM) was 106% and the viability, T/C [7] was 92%. For the same compound, the viability, T/C [8] was 126%, the viability, T/C [9] was 136% and the viability, T/C [10] was 154%. For the same compound, the viability, T/C (second compound 0.1 µM, first compound 0.00316 µM) was 76.5%, the viability, T/C (second compound 0.1 µM, first compound 0.01 µM) was 109% and the viability, T/C [11] was 95.7%. It also gave a viability, T/C [12] of 104%, a viability, T/C [13] of 122% and a viability, T/C [14] of 153%. It also gave a viability, T/C (second compound 0.316 µM, first compound 0.00316 µM) of 91.6%, a viability, T/C (second compound 0.316 µM, first compound 0.01 µM) of 98% and a viability, T/C [15] of 79.2%. It also gave a viability, T/C [16] of 117%, a viability, T/C [17] of 125% and a viability, T/C [18] of 156%. The viability, T/C (second compound 1 µM, first compound 0.00316 µM) was 74.5%, the viability, T/C (second compound 1 µM, first compound 0.01 µM) was 86.8% and the viability, T/C [19] was 84.8%. The viability, T/C [20] was 96.2%, the viability, T/C [21] was 134% and the viability, T/C [22] was 142%. It also gave a viability, T/C (second compound 3.16 µM, first compound 0.00316 µM) of 63.2%, a viability, T/C (second compound 3.16 µM, first compound 0.01 µM) of 61% and a viability, T/C [23] of 72.1%. For the same compound, the viability, T/C [24] was 85.7%, the viability, T/C [25] was 118% and the viability, T/C [26] was 123%. The viability, T/C (second compound 10 µM, first compound 0.00316 µM) was 55.1%, the viability, T/C (second compound 10 µM, first compound 0.01 µM) was 59.8% and the viability, T/C [27] was 75.4%. The viability, T/C [28] was 80.5%, the viability, T/C [29] was 101% and the viability, T/C [30] was 124%.
